Target: T1, β-amyloid Aβ42 (aggregates) (Homo sapiens, UniProt P05067)
T1 construct: gene APP; synthetic Aβ42 peptide, aggregated (fibrils)
Assay: fluorescence saturation titration of probe with […] aggregated Aβ[…] in PBS
Assay type: binding
Conditions: read-out: Probe 3

T1 sequence (P05067 672-713 limits assumed): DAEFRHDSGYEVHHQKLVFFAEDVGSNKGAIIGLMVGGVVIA

Q: For CN(C)c1ccc(/C=C/n2ncc3c(c2=O)Oc2ccc(C=C(C#N)C(=O)O)cc2O3)cc1 [compound 3, probe 3], which Kd is on record?
A: 350 ± 30 nM

— publication PMC5848141, “A Pyridazine-Based Fluorescent Probe Targeting Aβ Plaques in Alzheimer's Disease” (Journal of Analytical Methods in Chemistry, 2018)
